Test results from ChEMBL document CHEMBL4622887, “Antibacterial Pentacyclic Polyketides from a Soil-Derived Streptomyces” (2020).
Values after ≈ are worked out from the molar mass of the structure shown.

What was measured:
Assay type in all cases: functional
Staphylococcus aureus [1] = test: Antibacterial activity against Staphylococcus aureus ATCC 6538 incubated for 16 hrs by broth microdilution method; details: ATCC 6538, 16 h
Staphylococcus aureus [2] = test: Antibacterial activity against methicillin-resistant Staphylococcus aureus shhs-A1 incubated for 16 hrs by broth microdilution method; details: shhs-A1, 16 h
Bacillus spizizenii = test: Antibacterial activity against Bacillus subtilis ATCC 6633 incubated for 16 hrs by broth microdilution method; details: ATCC 6633, 16 h
Escherichia coli = test: Antibacterial activity against Escherichia coli ATCC 8099 incubated for 16 hrs by broth microdilution method; details: ATCC 8099, 16 h

| Compound | MIC (Staphylococcus aureus [1]) [µg/mL] | MIC (Staphylococcus aureus [2]) [µg/mL] | MIC (Bacillus spizizenii) [µg/mL] | MIC (Escherichia coli) [µg/mL] |
| --- | --- | --- | --- | --- |
| COc1cc(C)c(-c2cc(OC)c(Cl)c3c2C(=O)[C@@]2(O)C(=O)c4c(O)cc(O)cc4C(C)(C)[C@H]2C3)c(OC)c1 | 3.13 (≈ 5.66 µM) | 1.56 (≈ 2.82 µM) | 3.13 (≈ 5.66 µM) | 3.13 (≈ 5.66 µM) |
| NC[C@H]1O[C@H](O[C@H]2[C@H](O)[C@@H](O[C@H]3O[C@H](CO)[C@@H](O)[C@H](N)[C@H]3O)[C@H](N)C[C@@H]2N)[C@H](O)[C@@H](O)[C@@H]1O [KANAMYCIN] | 1.56 (≈ 3.22 µM) |  | 0.78 (≈ 1.61 µM) | 50 (≈ 103 µM) |
| COc1cc(C)c(-c2cc(OC)c(Cl)c3cc4c(c(O)c23)C(=O)c2c(O)cc(O)cc2C4(C)C)c(OC)c1 | 3.13 (≈ 5.85 µM) | 3.13 (≈ 5.85 µM) | 12.5 (≈ 23.4 µM) | 3.13 (≈ 5.85 µM) |
| COc1cc(C)c(-c2cc(OC)cc3cc4c(c(O)c23)C(=O)c2c(O)cc(O)cc2C4(C)C)c(OC)c1 | 3.13 (≈ 6.25 µM) | 1.56 (≈ 3.12 µM) | 3.13 (≈ 6.25 µM) | 1.56 (≈ 3.12 µM) |
| COc1cc(C)c(-c2cc(OC)c(Cl)c3c2C(=O)[C@@]2(O)C(=O)c4c(O)cc(O)c(Cl)c4C(C)(C)[C@H]2C3)c(OC)c1 | 0.78 (≈ 1.33 µM) | 1.56 (≈ 2.66 µM) | 3.13 (≈ 5.33 µM) | 1.56 (≈ 2.66 µM) |
| COc1cc(C)c(-c2cc(O)c(Cl)c3cc4c(c(O)c23)C(=O)c2c(O)cc(OC)cc2C4(C)C)c(OC)c1 | 6.25 (≈ 11.7 µM) | 6.25 (≈ 11.7 µM) | 6.25 (≈ 11.7 µM) | 6.25 (≈ 11.7 µM) |
| COc1cc(C)c(-c2cc(O)c(Cl)c3c2C(=O)[C@@]2(O)C(=O)c4c(O)cc(O)cc4C(C)(C)[C@H]2C3)c(O)c1 | 12.5 (≈ 23.8 µM) |  | 50 (≈ 95.2 µM) | 25 (≈ 47.6 µM) |
| COc1cc(C)c(-c2cc(OC)c(Cl)c3c2C(=O)[C@@]2(O)C(=O)c4c(O)c(Cl)c(O)c(Cl)c4C(C)(C)[C@H]2C3)c(OC)c1 | 0.39 (≈ 0.627 µM) | 0.2 (≈ 0.322 µM) | 0.39 (≈ 0.627 µM) | 0.78 (≈ 1.25 µM) |
| COc1cc(C)c(-c2cc(OC)c(Cl)c3c2C(=O)[C@@]2(O)C(=O)c4c(O)cc(O)cc4C(C)(C)[C@H]2C3)c(O)c1 | 6.25 (≈ 11.6 µM) | 6.25 (≈ 11.6 µM) | 6.25 (≈ 11.6 µM) | 3.13 (≈ 5.81 µM) |
| COc1cc(OC)c(-c2cc(OC)c(Cl)c3c2C(=O)[C@@]2(O)C(=O)c4c(O)cc(O)cc4C(C)(C)[C@H]2C3)c(C)c1Cl | 6.25 (≈ 10.6 µM) | 25 (≈ 42.6 µM) | 25 (≈ 42.6 µM) | 25 (≈ 42.6 µM) |
| COc1cc(O)cc(C)c1-c1cc(O)c(Cl)c2cc3c(c(O)c12)C(=O)c1c(O)cc(O)cc1C3(C)C | 1.56 (≈ 3.08 µM) | 3.13 (≈ 6.17 µM) | 6.25 (≈ 12.3 µM) | 6.25 (≈ 12.3 µM) |
| COc1cc(OC)c(-c2cc(OC)c(Cl)c3c2C(=O)[C@@]2(O)C(=O)c4c(O)cc(O)c(Cl)c4C(C)(C)[C@H]2C3)c(C)c1Cl | 3.13 (≈ 5.03 µM) | 3.13 (≈ 5.03 µM) | 1.56 (≈ 2.51 µM) | 1.56 (≈ 2.51 µM) |
| COc1cc(-c2c(O)cc(OC)c(Cl)c2C)c2c(O)c3c(cc2c1)C(C)(C)c1cc(O)cc(O)c1C3=O | 6.25 (≈ 12 µM) | 3.13 (≈ 6.01 µM) | 6.25 (≈ 12 µM) | 3.13 (≈ 6.01 µM) |
| COc1cc(O)c(-c2cc(O)cc3cc4c(c(O)c23)C(=O)c2c(O)cc(O)cc2C4(C)C)c(C)c1Cl | 3.13 (≈ 6.17 µM) | 1.56 (≈ 3.08 µM) | 3.13 (≈ 6.17 µM) | 3.13 (≈ 6.17 µM) |
| COc1cc(C)c(-c2cc(OC)cc3cc4c(c(O)c23)C(=O)c2c(O)cc(O)cc2C4(C)C)c(O)c1 | 3.13 (≈ 6.43 µM) | 3.13 (≈ 6.43 µM) | 6.25 (≈ 12.8 µM) | 3.13 (≈ 6.43 µM) |
| COc1cc2c(c(-c3c(O)cc(OC)c(Cl)c3C)c1)C(=O)[C@@]1(O)C(=O)c3c(O)cc(O)cc3C(C)(C)[C@H]1C2 | 3.13 (≈ 5.81 µM) | 3.13 (≈ 5.81 µM) | 6.25 (≈ 11.6 µM) | 3.13 (≈ 5.81 µM) |
| COc1cc(O)c(-c2cc(OC)c(Cl)c3c2C(=O)[C@@]2(O)C(=O)c4c(O)cc(O)cc4C(C)(C)[C@H]2C3)c(C)c1Cl | 0.39 (≈ 0.68 µM) | 1.56 (≈ 2.72 µM) | 1.56 (≈ 2.72 µM) | 1.56 (≈ 2.72 µM) |
| CN[C@H](CC(C)C)C(=O)N[C@H]1C(=O)N[C@@H](CC(N)=O)C(=O)N[C@H]2C(=O)N[C@H]3C(=O)N[C@H](C(=O)N[C@H](C(=O)O)c4cc(O)cc(O)c4-c4cc3ccc4O)[C@H](O)c3ccc(c(Cl)c3)Oc3cc2cc(c3O[C@@H]2O[C@H](CO)[C@@H](O)[C@H](O)[C@H]2O[C@H]2C[C@](C)(N)[C@H](O)[C@H](C)O2)Oc2ccc(cc2Cl)[C@H]1O [VANCOMYCIN] |  | 1.56 (≈ 1.08 µM) |  |  |
| COc1cc(OC)c(-c2cc(OC)c(Cl)c3c2C(=O)[C@@]2(O)C(=O)c4c(cc(O)c(Cl)c4O)C(C)(C)[C@H]2C3)c(C)c1Cl | 6.25 (≈ 10 µM) | 3.13 (≈ 5.03 µM) | 3.13 (≈ 5.03 µM) | 12.5 (≈ 20.1 µM) |
